PubChem BioAssay AID2060496 (Molecular Pharmacology Branch, DTP, NCI, 2025)
pIC50: −log10 of the molar value. Several values for one entry are separate records, joined by “and”; a condition that tells them apart may be missing. Equal entries are not always repeated.

System: 276233-004-R-J1-PDC complex spheroid viability
Test: Anticancer human tumor 276233-004-R-J1-PDC patient-derived colon adenocarcinoma cell line growth inhibition [GQUAD]
Conditions: for viability, T/C: stronger effect = lower value
From the text: DNA G-quadruplex Stabilizer Agents in Combinations in Complex Spheroids
A high-throughput screen of multi-cell type tumor spheroids was designed to identify active combinations of DNA G-quadruplex stabilizer agents and targeted small molecules. Complex spheroids include a stromal component modeled by human endothelial cells (HUVEC) and fibroblasts modeled by human mesenchymal stem cells (MSCs). The concentration ranges selected for each drug and investigational agent were based upon clinically achievable concentrations if the clinical Cmax of the agent was known.
Compounds. The drugs and investigational agents: pidnarulex (CX-5461; NSC782164), APTO-253 (NSC789042), BRACO-19 (NSC847499), peposertib (NSC802822), ceralasertib (NSC780249), elimusertib (NSC800525), camonsertib (NSC841442), AZD-1390 (NSC803789), olaparib (NSC753686), talazoparib (NSC767125), ART-558 (NSC835418), sotorasib (NSC818433), MRTX-1133 (NSC836407), SN-38 (NSC673596), topotecan (NSC609699), etoposide (NSC141540), doxorubicin (NSC123127), gemcitabine (NSC613327), 5-fluorouracil (NSC19893), paclitaxel (NSC125973), vemurafenib (NSC761431), panobinostat (NSC761190), R-306465 (JNJ-16241199; NSC773264), adavosertib (NSC754352), TP-3654 (NSC805149), carboplatin (NSC241240), KSQ-4279 (NSC840948), and staurosporine (NSC755774) were obtained from the National Cancer Institute (NCI) Developmental Therapeutics Program Chemical Repository (34). The FDA-approved anticancer drug set is available from the NCI Developmental Therapeutics Program. […] The stock solutions were prepared in dimethyl sulfoxide (DMSO, Sigma-Aldrich, St. Louis, MO, cat. D2650) at 800-fold the tested concentration and stored at -70 degrees C prior to their use. All drugs and investigational agents were tested over a range starting from a high concentration at or near the clinical Cmax and decreasing in half-log increments. If the clinical Cmax for an agent had not been determined, the highest concentration tested was 10 microM.
2.3 Cell Culture. All cells were maintained in an incubator at 37 degrees C and 5% CO2 with 95% humidity. The PDC lines were cultured according to standard operating procedures established by the NCI PDMR. All PDCs were thawed and cultured in Matrigel-coated flasks prepared with a working solution of 1X Ham's F-12 nutrient mix, without supplementation (Invitrogen, cat. 11765054), 100 U/mL penicillin-streptomycin (Invitrogen, cat. 15140122), and 2.5% Matrigel (Corning Inc., cat. 354248) for the first three passages. The 857933-349-R-J2-PDC line was cultured in 6C/Colon 1B media, which includes advanced DMEM/F-12 (Thermo Fisher Scientific, cat. 12634028), 10 mM HEPES (Thermo Fisher Scientific, cat. 15630080), 1X GlutaMAX supplement (Thermo Fisher Scientific, cat. 35050061), 0.1 mg/mL primocin (InvivoGen, cat. ant-pm-2), 10% defined fetal bovine serum, heat inactivated (HyClone Laboratories Inc., cat. SH30070.03HI), 50% L-WRN conditioned media (ATCC, cat. CRL-3276), 1.25 mM N-Acetyl-L-cysteine (Sigma-Aldrich, cat. A9165), 10 mM nicotinamide (Sigma-Aldrich, cat. N0636), 1X B-27 supplement (Thermo Fisher Scientific, cat. 17504044), 1X N-2 supplement (Thermo Fisher Scientific, cat. 17502048), 10 microM Y-27632 dihydrochloride (Tocris Bioscience, cat. 1254), and 50 ng/mL human EGF recombinant protein (Thermo Fisher Scientific, cat. PHG0311). The 485176-168-R4-J1-PDC line was cultured in Panc media, which includes all 6C/Colon 1B media components plus 100 ng/mL human FGF-10 (Thermo Fisher Scientific, cat. 100-26), 500 nM SB-431542 (Selleckchem, cat. S1067), and gastrin (Tocris, cat. 3006).
[…]

[1] = curve of first compound, second compound 0.0316 µM
[2] = curve of first compound, second compound 0.1 µM
[3] = curve of first compound, second compound 0.316 µM
[4] = curve of first compound, second compound 1 µM
[5] = curve of first compound, second compound 3.16 µM
[6] = curve of first compound, second compound 10 µM
[7] = second compound 0.0316 µM, first compound 0.0316 µM
[8] = second compound 0.0316 µM, first compound 0.1 µM
[9] = second compound 0.0316 µM, first compound 0.316 µM
[10] = second compound 0.0316 µM, first compound 1 µM
[11] = second compound 0.0316 µM, first compound 3.16 µM
[12] = second compound 0.0316 µM, first compound 10 µM
[13] = second compound 0.1 µM, first compound 0.0316 µM
[14] = second compound 0.1 µM, first compound 0.1 µM
[15] = second compound 0.1 µM, first compound 0.316 µM
[16] = second compound 0.1 µM, first compound 1 µM
[17] = second compound 0.1 µM, first compound 3.16 µM
[18] = second compound 0.1 µM, first compound 10 µM
[19] = second compound 0.316 µM, first compound 0.0316 µM
[20] = second compound 0.316 µM, first compound 0.1 µM
[21] = second compound 0.316 µM, first compound 0.316 µM
[22] = second compound 0.316 µM, first compound 1 µM
[23] = second compound 0.316 µM, first compound 3.16 µM
[24] = second compound 0.316 µM, first compound 10 µM
[25] = second compound 1 µM, first compound 0.0316 µM
[26] = second compound 1 µM, first compound 0.1 µM
[27] = second compound 1 µM, first compound 0.316 µM
[28] = second compound 1 µM, first compound 1 µM
[29] = second compound 1 µM, first compound 3.16 µM
[30] = second compound 1 µM, first compound 10 µM
[31] = second compound 3.16 µM, first compound 0.0316 µM
[32] = second compound 3.16 µM, first compound 0.1 µM
[33] = second compound 3.16 µM, first compound 0.316 µM
[34] = second compound 3.16 µM, first compound 1 µM
[35] = second compound 3.16 µM, first compound 3.16 µM
[36] = second compound 3.16 µM, first compound 10 µM
[37] = second compound 10 µM, first compound 0.0316 µM
[38] = second compound 10 µM, first compound 0.1 µM
[39] = second compound 10 µM, first compound 0.316 µM
[40] = second compound 10 µM, first compound 1 µM
[41] = second compound 10 µM, first compound 3.16 µM
[42] = second compound 10 µM, first compound 10 µM
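Note: spheroids exposed to drugs for seven days.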
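Throughout, for viability, T/C: 100% = DMSO vehicle control viability.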

Cc1cccc(N(C)C(=O)C2C(O)CCN2c2nc(C)cc(C(F)(F)F)c2C#N)c1 (stereo not given) + CN(C)c1ccc(Nc2c3ccc(NC(=O)CCN4CCCC4)cc3nc3cc(NC(=O)CCN4CCCC4)ccc23)cc1
pIC50 [1]: < 5.00
pIC50 [2]: < 5.00
pIC50 [3]: < 5.00
pIC50 [4]: < 5.00
pIC50 [5]: < 5.00
pIC50 [6]: > 7.50
viability, T/C [7]: 77.3%
viability, T/C [8]: 74.1%
viability, T/C [9]: 86.7%
viability, T/C [10]: 97.1%
viability, T/C [11]: 98.1%
viability, T/C [12]: 101%
viability, T/C [13]: 96.8%
viability, T/C [14]: 98.1%
viability, T/C [15]: 89.5%
viability, T/C [16]: 89.2%
viability, T/C [17]: 86.5%
viability, T/C [18]: 96%
viability, T/C [19]: 71.2%
viability, T/C [20]: 75.4%
viability, T/C [21]: 73.2%
viability, T/C [22]: 50.7%
viability, T/C [23]: 60.5%
viability, T/C [24]: 68.1%
viability, T/C [25]: 57.3%
viability, T/C [26]: 47.1%
viability, T/C [27]: 63.1%
viability, T/C [28]: 57.6%
viability, T/C [29]: 51.2%
viability, T/C [30]: 64.9%
viability, T/C [31]: 51%
viability, T/C [32]: 49.3%
viability, T/C [33]: 50.6%
viability, T/C [34]: 55.9%
viability, T/C [35]: 65.8%
viability, T/C [36]: 68.7%
viability, T/C [37]: 39.7%
viability, T/C [38]: 51.5%
viability, T/C [39]: 41.2%
viability, T/C [40]: 72.6%
viability, T/C [41]: 63.1%
viability, T/C [42]: 54.8%

Cc1cnc(CNC(=O)c2c(=O)c3ccc(N4CCCN(C)CC4)nc3n3c2sc2ccccc23)cn1
viability, T/C (compound 1 µM): 85.5% [middle of 12 runs]
viability, T/C (compound 3.16 µM): 74.2% [middle of 12 runs]
viability, T/C (compound 10 µM): 68.8% [middle of 12 runs]
pIC50 (compound alone, run of 02/20/2024): < 5.00

CCCS(=O)(=O)Nc1ccc(F)c(C(=O)c2c[nH]c3ncc(-c4ccc(Cl)cc4)cc23)c1F + Cc1[nH]c2ccc(F)cc2c1-c1nc2c3cccnc3c3ncccc3c2[nH]1
pIC50 [1]: < 5.00
pIC50 [2]: < 5.00
pIC50 [3]: < 5.00
pIC50 [4]: > 7.50
pIC50 [5]: > 7.50
pIC50 [6]: > 7.50
viability, T/C [7]: 99.6%
viability, T/C [8]: 82.8%
viability, T/C [9]: 83.3%
viability, T/C [10]: 101%
viability, T/C [11]: 78.8%
viability, T/C [12]: 50.8%
viability, T/C [13]: 95.7%
viability, T/C [14]: 81.7%
viability, T/C [15]: 80.7%
viability, T/C [16]: 78.5%
viability, T/C [17]: 59.7%
viability, T/C [18]: 61.2%
viability, T/C [19]: 74.3%
viability, T/C [20]: 71.2%
viability, T/C [21]: 63.9%
viability, T/C [22]: 65.3%
viability, T/C [23]: 55%
viability, T/C [24]: 61.9%
viability, T/C [25]: 52.9%
viability, T/C [26]: 41.3%
viability, T/C [27]: 44.2%
viability, T/C [28]: 50.1%
viability, T/C [29]: 61.9%
viability, T/C [30]: 37.7%
viability, T/C [31]: 18.2%
viability, T/C [32]: 12.9%
viability, T/C [33]: 27.3%
viability, T/C [34]: 15.5%
viability, T/C [35]: 20.9%
viability, T/C [36]: 13.1%
viability, T/C [37]: 31.9%
viability, T/C [38]: 35.4%
viability, T/C [39]: 42.6%
viability, T/C [40]: 30.3%
viability, T/C [41]: 41.4%
viability, T/C [42]: 27.5%

Cc1[nH]c2ccccc2c1CCNCc1ccc(/C=C/C(=O)NO)cc1
viability, T/C (compound 0.000999 µM): 86.2% and 100% and 95.1%
viability, T/C (compound 0.00316 µM): 71% and 96.2% and 83.8%
viability, T/C (compound 0.00999 µM): 96.1% and 81.2% and 98.1%
viability, T/C (compound 0.0316 µM): 80.3% and 84% and 82.8%
viability, T/C (compound 0.0999 µM): 80.9% and 60.8% and 86.1%
viability, T/C (compound 0.316 µM): 19.3% and 31.7% and 41.9%
pIC50 (curve of compound): 6.75 and 6.81 and 6.59
